The values below come from publication PMC7504814, “Coumarin and Moracin Derivatives from Mulberry Leaves (Morus alba L.) with Soluble Epoxide Hydrolase Inhibitory Activity” (Molecules, 2020).

Each structure is given as a SMILES string. Like-named read-outs stand apart in the source and are kept apart here.

Test [1] has as its target T1, sEH (Homo sapiens, UniProt P34913).
T1 construct: purchased Cayman Chemical Company 10011669
T1 sequence (P34913 1-555): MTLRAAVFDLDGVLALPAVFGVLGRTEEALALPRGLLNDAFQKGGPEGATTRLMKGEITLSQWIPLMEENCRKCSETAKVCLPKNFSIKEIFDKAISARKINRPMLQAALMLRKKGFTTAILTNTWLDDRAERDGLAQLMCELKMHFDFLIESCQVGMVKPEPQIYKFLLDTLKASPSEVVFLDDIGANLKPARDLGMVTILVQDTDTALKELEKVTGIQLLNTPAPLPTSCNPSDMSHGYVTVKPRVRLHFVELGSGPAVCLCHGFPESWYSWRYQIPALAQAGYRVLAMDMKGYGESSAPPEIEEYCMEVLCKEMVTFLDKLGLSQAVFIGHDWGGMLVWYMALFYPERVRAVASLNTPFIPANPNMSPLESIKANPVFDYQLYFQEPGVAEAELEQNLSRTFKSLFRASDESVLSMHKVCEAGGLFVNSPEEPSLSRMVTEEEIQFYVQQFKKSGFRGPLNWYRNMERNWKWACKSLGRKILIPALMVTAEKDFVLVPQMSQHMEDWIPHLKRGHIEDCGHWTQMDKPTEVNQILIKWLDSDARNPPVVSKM
In words: sEH kinetic assay (Lineweaver-Burk and Dixon plots). The class given is biochemical. The following applies: PHOME 5–80 µM; for Ki: calculated from Dixon plots; for Type of inhibition: Lineweaver-Burk plots.

Test [2] deals with T1, sEH. Briefly: sEH inhibition assay with PHOME fluorescent substrate. The class given is biochemical. The following applies: for inhibition at 100 µM: compound at 100 µM, read-out: Inhibition of Compounds on sEH, 100 µM(%).
Where [3] appears, read: PHOME substrate, mean ± SD (n = 3).
Where [4] appears, read: PHOME substrate, mean ± SD (n = 3), read-out: Inhibition of Compounds on sEH, IC50.

Usually Ki stands for a measure of affinity in units of concentration, obtained from inhibition or displacement. For orientation: IC50 means the concentration that inhibits the measured activity by half. In general, inhibition refers to the relative decrease from the control value, in per cent. With `O=c1ccc2cc(O)c(O)cc2o1` [Compound 1, aesculetin], the Ki in test [1] is 1200 nM. In test [2], this compound displayed an IC50 of 6900 ± 500 nM. Also, in test [2] (setting [3]), the inhibition at 100 µM stood at 100%.
As to `COc1cc2ccc(=O)oc2cc1O` [Compound 2, scopoletin], in test [1], the Type of inhibition entry was “competitive” and the Ki is 300 nM. Further, in test [2] (setting [4]), the IC50 was determined as 200 ± 100 nM. Besides, in test [2] (setting [3]), the inhibition at 100 µM was 100%.
For `COc1cc2ccc(=O)oc2cc1OC1OC(CO)C(O)C(O)C1O` (stereo not drawn) [Compound 3] the same measures were “competitive”, 5400 nM, 15900 ± 400 nM and 100%.
For `COc1cc(O)cc(-c2cc3cc(O)c(OC)cc3o2)c1` [Compound 4, moracin B], in test [1], the Type of inhibition result is “competitive” and the Ki is 1000 nM. In addition, the concentration for half-maximal inhibition (IC50) in test [2] (setting [4]) was found to be 1100 ± 100 nM. In addition, the inhibition at 100 µM in test [2] (setting [3]) stood at 100%.
As to `COc1cc2cc(-c3cc(O)cc(O)c3)oc2cc1O` [Compound 5, moracin J], in test [1], the Type of inhibition entry is given as “mixed types of inhibitors” and the Ki is 2100 nM. The IC50 in test [2] (setting [4]) came to 1200 ± 100 nM. The inhibition at 100 µM in test [2] (setting [3]) worked out at 100%.
For `Oc1cc(O)cc(-c2cc3ccc(O)cc3o2)c1` [Compound 6, moracin M] the same measures were “competitive”, 1500 nM, 9900 ± 2200 nM and 100%.
For `OCC1OC(Oc2cc(O)cc(-c3cc4ccc(O)cc4o3)c2)C(O)C(O)C1O` (stereo not drawn) [Compound 7, moracin M 3’-O-β-glucopyranoside] the same measures were “mixed types of inhibitors”, 5800 nM, 7700 ± 100 nM and 100%.
